Assay results: publication PMC6021390, “A promiscuous cytochrome P450 aromatic O-demethylase for lignin bioconversion” (Nature Communications, 2018)
“Also recorded” adds a separate entry of the source. Like-named read-outs stand apart in the source and are kept apart here.

Experiments:
GcoA = molecular target: T1, GcoA (Amycolatopsis sp., UniProt P0DPQ7); test: Determination of substrate dissociation constants with GcoA (UV/vis spectral shift titration; fluorescence quenching for vanillin); assay type: binding
T1 construct: GST (N, cleaved yes); made in house; host or cells: E. coli Rosetta 2 (DE3)
T1 sequence (P0DPQ7 1-407): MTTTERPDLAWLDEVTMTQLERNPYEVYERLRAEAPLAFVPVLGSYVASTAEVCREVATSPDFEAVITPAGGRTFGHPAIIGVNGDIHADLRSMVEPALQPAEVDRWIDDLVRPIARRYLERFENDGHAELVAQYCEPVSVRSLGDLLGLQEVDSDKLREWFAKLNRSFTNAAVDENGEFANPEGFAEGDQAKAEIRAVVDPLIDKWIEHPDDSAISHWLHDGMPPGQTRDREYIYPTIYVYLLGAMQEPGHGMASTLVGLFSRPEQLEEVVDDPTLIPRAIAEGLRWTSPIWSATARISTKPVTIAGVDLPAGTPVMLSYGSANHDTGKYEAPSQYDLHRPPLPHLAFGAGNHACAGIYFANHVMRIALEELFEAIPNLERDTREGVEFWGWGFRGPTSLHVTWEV
Method: A total of 0–60 µM of substrate analogs, in 0.25 or 0.5 µM aliquots, were titrated into a cuvette containing 1–6 µM GcoA in 25 mM HEPES, 50 mM NaCl, pH 7.5. The spectrum after each substrate addition was recorded, beginning with no substrate bound. The solution reached equilibrium before the next addition. A difference spectrum was made to illustrate the shift from a low-spin aquo-heme complex to the high-spin substrate-bound complex (spectral shift from 417 nm to 388 nm). […] The absorbance at 388 nm was plotted as a function of [substrate], yielding a quadratic curve that was fit to Eq. (7) to determine the KD.7 ΔAbsobs=ΔAbsmax/2EtL0+Et+KD-L0+Et+KD^2-4Et*L0. Where L0, Et, KD, and ΔAbsmax are the ligand concentrations, total protein (subunit) concentration, the equilibrium dissociation constant, and the maximum Abs388–417 nm, respectively. Reported values are the average of 2 or more measurements.
Since the UV/vis spectra of vanillin and heme overlap, fluorescence quenching was monitored to determine the KD. […] Fluorescence emission intensity was followed upon titration of vanillin (0–350 µM) after equilibrium had been established. The % fluorescence quenched, Eq. (8), was plotted as a function of vanillin and fit to Eq. (7) above, replacing ΔAbsmax with ΔFluorescencemax.8 %Fquenched=Fmax-Fintensity/Fmax×100%.

GcoAB [1] = molecular target: T2, GcoAB (Amycolatopsis sp., UniProt P0DPQ7); test: HPLC quantification of demethylated aromatic product versus NADH consumed; assay type: biochemical, Amycolatopsis sp. ATCC 39116; parameters: GST (N, cleaved yes); made in house; host or cells: E. coli Rosetta 2 (DE3); conditions: saturating substrate, 300 μM NADH, 0.2 μM GcoAB
T2 sequence (P0DPQ7 1-407): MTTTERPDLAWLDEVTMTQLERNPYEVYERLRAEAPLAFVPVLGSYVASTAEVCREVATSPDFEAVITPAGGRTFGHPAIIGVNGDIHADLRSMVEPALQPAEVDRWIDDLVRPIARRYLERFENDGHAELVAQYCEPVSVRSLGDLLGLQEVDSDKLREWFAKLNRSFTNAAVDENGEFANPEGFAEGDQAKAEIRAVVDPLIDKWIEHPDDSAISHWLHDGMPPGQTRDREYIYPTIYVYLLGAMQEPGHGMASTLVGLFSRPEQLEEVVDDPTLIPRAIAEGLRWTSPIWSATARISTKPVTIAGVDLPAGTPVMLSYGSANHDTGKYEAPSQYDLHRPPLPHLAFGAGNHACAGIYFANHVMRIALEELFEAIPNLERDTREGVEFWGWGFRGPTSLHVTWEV
T2 sequence (P0DPQ8 1-334 partner): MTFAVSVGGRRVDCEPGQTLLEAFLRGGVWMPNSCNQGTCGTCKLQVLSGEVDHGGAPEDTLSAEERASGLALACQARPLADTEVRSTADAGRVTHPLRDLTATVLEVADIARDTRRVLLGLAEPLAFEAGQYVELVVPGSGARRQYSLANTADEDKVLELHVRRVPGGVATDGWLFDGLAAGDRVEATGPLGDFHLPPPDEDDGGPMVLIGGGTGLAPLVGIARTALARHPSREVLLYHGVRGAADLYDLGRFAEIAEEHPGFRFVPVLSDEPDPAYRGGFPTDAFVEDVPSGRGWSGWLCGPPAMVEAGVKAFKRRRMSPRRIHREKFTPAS
Method: Analyte analysis of samples was performed on an Agilent 1200 LC system (Agilent Technologies, Santa Clara, CA) equipped with a G1315A diode array detector (DAD). Each sample and standard was injected at a volume of 10 μL onto a Phenomenex Luna C18(2) column 5 μm, 4.6 × 150 mm column (Phenomenex, Torrance, CA). The column temperature was maintained at 30 °C and the buffers used to separate the analytes of interest was 0.05% acetic acid in water (A)/ acetonitrile (B). The separation was carried out using a gradient program of: (A) = 99% and (B) = 1% at time t = 0; (A) = 99% and (B) = 1% at time t = 5, (A) = 50% and (B) = 50% at t = 35 min; (A) = 1% and (B) = 99% at t = 35.01 min; (A) = 99% and (B) = 1% at t = 37.01 min; (A) = 99% and (B) = 1% at t = 47.00 min. The flow rate was held constant at 0.6 mL min^−1 resulting in a run time of 47 min. Calibration curve concentration for each analyte varied between the ranges of 2.5–200 µg L^−1. A DAD wavelength of 225 nm was used for analysis of the analytes of interest. […] A minimum of 3–5 calibration levels was used with an r^2 coefficient of 0.995 or better for each analyte and a check calibration standard (CCS) was analyzed every 10 samples to insure the integrity of the initial calibration.

GcoAB [2] = molecular target: T2, GcoAB; conditions: for substrate classification with GcoAB: coupling of NADH consumption to demethylation; for binding or catalytic interaction with GcoA: screen of ten O-methylated aromatic compounds
Method: The demethylation of guaiacol and substrate analogs was continuously monitored under steady-state conditions. […] A total of 100 µg/mL catalase was added to each reaction to capture any H2O2 formed during the uncoupled reaction. […] A total of 20–300 µM guaiacol (preferred substrate) or an alternate substrate from a 2.5 mM stock dissolved in DMSO was added and the reaction was monitored via measurement of UV/vis spectra for several minutes. […] A plot of vi vs [guaiacol] was fit to Eq. (2) to obtain kcat, KM, and kcat/KM. For specific activity determination, the above method was used but with saturating (300 µM) guaiacol. […] Reported values are the average of ≥3 measurements and reported errors are standard deviations.
Reactions with vanillin were performed in the same manner described above.

GcoAB [3] = molecular target: T2, GcoAB; test: Aldehyde product determination (tryptophan assay for formaldehyde, dehydrogenase assay for acetaldehyde) versus NADH consumed; assay type: biochemical, Amycolatopsis sp. ATCC 39116; parameters: GST (N, cleaved yes); made in house; host or cells: E. coli Rosetta 2 (DE3); conditions: formaldehyde (acetaldehyde for guaethol), saturating substrate, 300 μM NADH, 0.2 μM GcoAB
Source text: For the quantification of formaldehyde (demethylation) or acetaldehyde (de-ethylation) production, the reaction was monitored via UV/vis or fluorescence (in the case of vanillin) using the same set of conditions as outlined above for specific activity determination. After eight minutes, aliquots of the sample were removed and carried onto the respective aldehyde detection assay. For reactions that produced formaldehyde (e.g., all substrates except guaethol), a colorimetric tryptophan assay was used, described previously. Briefly, 200 µL of the reaction was quenched by adding 200 µL of 0.1% tryptophan solution in 50% ethanol, 200 µL 90% sulfuric acid and 40 µL of 1% FeCl3. The solution was then incubated in a heating block for 90 min at 70 °C. After cooling, the absorbance was read at 575 nm and the [formaldehyde] calculated by comparing to a standard curve made with 0–320 µM formaldehyde. A reaction with just the assay components was treated in the same manner as the reaction samples and used as a baseline. Control reactions included everything but GcoA/B, catalase, and substrate. Reported values are the average of ≥3 measurements.
[Acetaldehyde] produced during the dealkylation of guaethol was also determined by using a colorimetric assay and a generated acetaldehyde standard curve. A kit from BioAssays was used. Briefly, 20 µL of the reacted sample was transferred to a 96-well plate and 80 µL of the working reagent, consisting of NAD/MTT and aldehyde dehydrogenase, was added. The reaction was incubated for 30 min at room temperature and the absorbance read at 565 nm. Aldehyde dehydrogenase and NAD react with acetaldehyde to produce acetic acid and NADH. […] Control reactions included samples without substrate and/or aldehyde dehydrogenase. Reported values are the average of ≥3 measurements.

[4] = substrate: COc1ccccc1; test: purified protein, by the assay type; conditions: other: 0.2 μM GcoAB, 300 μM NADH, pH 7.5, 25 °C, air
Method: (§1) The demethylation of guaiacol and substrate analogs was continuously monitored under steady-state conditions. A total of 0.2 µM each of GcoA and GcoB were dissolved in air-saturated buffer (25 mM HEPES, 50 mM NaCl) in a cuvette at pH 7.5, 25 °C. A total of 100 µg/mL catalase was added to each reaction to capture any H2O2 formed during the uncoupled reaction. […] A plot of vi vs [guaiacol] was fit to Eq. (2) to obtain kcat, KM, and kcat/KM. For specific activity determination, the above method was used but with saturating (300 µM) guaiacol. […] Reported values are the average of ≥3 measurements and reported errors are standard deviations.

[5] = substrate: COc1ccccc1C; test: purified protein, by the assay type; conditions: other: 0.2 μM GcoAB, 300 μM NADH, pH 7.5, 25 °C, air
Method: as §1

[6] = substrate: COc1cccc(O)c1O; test: purified protein, by the assay type; conditions: other: 0.2 μM GcoAB, 300 μM NADH, pH 7.5, 25 °C, air
Method: as §1

[7] = substrate: COc1ccccc1O; test: purified protein, by the assay type; conditions: other: 0.2 μM GcoAB, 300 μM NADH, pH 7.5, 25 °C, air
Method: as §1

[8] = substrate: CCOc1ccccc1O; test: purified protein, by the assay type; conditions: other: 0.2 μM GcoAB, 300 μM NADH, pH 7.5, 25 °C, air
Method: as §1

[9] = 1–6 μM GcoA, 25 °C, 25 mM HEPES, 50 mM NaCl, pH 7.5, read-out: Compound KD

Molecule: COc1cccc(OC)c1O [Syringol]
- Kd (GcoA; [9]): 2800 ± 400 nM
- Demethylated product: amount produced per NADH consumed (GcoAB [1]): 0.21 ± 0.002
- substrate classification with GcoAB (GcoAB [2]): partial substrate, partial uncoupler

Molecule: COc1cc(C=O)ccc1O [Vanillin]
- Kd (GcoA): 37000 ± 3000 nM
- Demethylated product: amount produced per NADH consumed (GcoAB [1]): 0.20 ± 0.01
- substrate classification with GcoAB (GcoAB [2]): partial substrate, partial uncoupler
- Aldehyde produced per NADH consumed (GcoAB [3]): 0.40 ± 0.04
- Aldehyde produced per NADH consumed (GcoAB [3]; listed as vanillin): less than stoichiometric amounts of formaldehyde

Molecule: COc1ccccc1 [Anisole]
- Kd (GcoA; [9]): 1700 ± 200 nM
- Demethylated product: amount produced per NADH consumed (GcoAB [1]): 0.62 ± 0.1
- Aldehyde produced per NADH consumed (GcoAB [3]): 1.1 ± 0.01

Molecule: COc1cccc(O)c1O [3-methoxycatechol]
- Kd (GcoA; [9]): 3700 ± 100 nM
- Demethylated product: amount produced per NADH consumed (GcoAB [1]): 0.97 ± 0.002
- Aldehyde produced per NADH consumed (GcoAB [3]): 0.90 ± 0.04

Molecule: COc1ccccc1O [Guaiacol, 2-methoxyphenol]
- Kd (GcoA; [9]): 6 ± 2 nM
- Kd (GcoA; binding to GcoA, read-out: KD): 6 nM
- Demethylated product: amount produced per NADH consumed (GcoAB [1]): 1.2 ± 0.3
- specific activity (GcoAB [2]; 300 μM guaiacol, 0.2 μM GcoA/B, 300 μM NADH, pH 7.5, 25 °C): 4.6 mM NADH sec-1 [mM GcoA]-1
- kcat (GcoAB [2]; Supplementary Figure 20, 0.2 μM GcoA/B, 300 μM NADH, ambient O2, pH 7.5, 25 °C): 6.8 ± 0.5 s⁻¹
- kcat (GcoAB [2]; Supplementary Table 4, 0.2 μM GcoA/B, 300 μM NADH, 5-300 μM guaiacol, pH 7.5, 25 °C, air): 6.8 ± 0.5 s⁻¹
- Aldehyde produced per NADH consumed (GcoAB [3]): 1.2 ± 0.15

Molecule: COc1cc(/C=C/C(=O)O)ccc1O [ferulate]
- binding or catalytic interaction with GcoA (GcoAB [2]): no detectable binding or catalytic interaction; also recorded: preclude binding and/or demethylation

Molecule: CCOc1ccccc1O [Guaethol]
- Kd (GcoA; [9]): 70 ± 30 nM
- Demethylated product: amount produced per NADH consumed (GcoAB [1]): 1.4 ± 0.3
- reduction in kcat compared to guaiacol (GcoAB [2]): almost fivefold reduction
- Aldehyde produced per NADH consumed (GcoAB [3]): 1.5 ± 0.14

Molecule: COc1ccccc1OC [veratrole]
- substrate classification with GcoAB (GcoAB [2]): non-substrate/non-binder
- binding or catalytic interaction with GcoA (GcoAB [2]): no detectable binding or catalytic interaction

Molecule: COc1ccccc1C [2-methylanisole]
- Kd (GcoA; [9]): 1000 ± 100 nM
- Demethylated product: amount produced per NADH consumed (GcoAB [1]): 0.20 ± 0.04
- Aldehyde produced per NADH consumed (GcoAB [3]): 0.90 ± 0.1

B1: GcoAB (Amycolatopsis sp. ATCC 39116) (protein)
chain: MTTTERPDLAWLDEVTMTQLERNPYEVYERLRAEAPLAFVPVLGSYVASTAEVCREVATSPDFEAVITPAGGRTFGHPAIIGVNGDIHADLRSMVEPALQPAEVDRWIDDLVRPIARRYLERFENDGHAELVAQYCEPVSVRSLGDLLGLQEVDSDKLREWFAKLNRSFTNAAVDENGEFANPEGFAEGDQAKAEIRAVVDPLIDKWIEHPDDSAISHWLHDGMPPGQTRDREYIYPTIYVYLLGAMQEPGHGMASTLVGLFSRPEQLEEVVDDPTLIPRAIAEGLRWTSPIWSATARISTKPVTIAGVDLPAGTPVMLSYGSANHDTGKYEAPSQYDLHRPPLPHLAFGAGNHACAGIYFANHVMRIALEELFEAIPNLERDTREGVEFWGWGFRGPTSLHVTWEV
- Km [4]: 43 ± 4 µM
- kcat [4]: 3.5 ± 0.2 s⁻¹
- kcat/Km [4]: 82000 ± 8000 M⁻¹ s⁻¹
- Km [5]: 27 ± 3 µM
- kcat [5]: 4.6 ± 0.1 s⁻¹
- kcat/Km [5]: 170000 ± 20000 M⁻¹ s⁻¹
- Km [6]: 30 ± 3 µM
- kcat [6]: 2.1 ± 0.05 s⁻¹
- kcat/Km [6]: 75000 ± 7000 M⁻¹ s⁻¹
- Km [7]: 60 ± 10 µM
- kcat [7]: 6.8 ± 0.5 s⁻¹
- kcat/Km [7]: 110000 ± 20000 M⁻¹ s⁻¹
- Km [8]: 15 ± 4 µM
- kcat [8]: 1.4 ± 0.09 s⁻¹
- kcat/Km [8]: 100000 ± 20000 M⁻¹ s⁻¹
